Experimental data: the supplement of paper PMC10307832

Tests used:
Experiment in all cases: relative viability (nuclei count vs DMSO), 5 days (fraction); higher = more cells survive
[1] = tested on: NCI-H647
In short: (§1)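 Relative viability divides the nuclei count in treated wells by that in vehicle wells. Lung cancer cell lines were seeded in 1536-well plates, dosed by pin tool the next day, and fixed and stained after 5 days in one step with final 0.05% Triton X-100, 1% formaldehyde and 1 ug/ml Hoechst. Dosing was a single drug or a fixed anchor-drug dose plus five library-drug doses (not always all listed) in √10 steps, and values are medians of duplicate plates imaged at 4×.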

[2] = tested on: HCC-78
In short: as §1

[3] = tested on: HCC-827
In short: as §1

[4] = tested on: NCI-H1666
In short: as §1

[5] = tested on: NCI-H650
In short: as §1

[6] = tested on: NCI-H2087
In short: as §1

[7] = tested on: COR-L 105
In short: as §1

[8] = tested on: 201T
In short: as §1

[9] = tested on: NCI-H520
In short: as §1

[10] = tested on: NCI-H1915
In short: as §1

[11] = tested on: RERF-LC-KJ
In short: as §1

[12] = tested on: PC-14
In short: as §1

[13] = tested on: NCI-H23
In short: as §1

[14] = tested on: ChaGo-K-1
In short: as §1

[15] = tested on: NCI-H2347
In short: as §1

[16] = tested on: H3255
In short: as §1

[17] = tested on: NCI-H2405
In short: as §1

[18] = tested on: LCLC-97TM1
In short: as §1

[19] = tested on: NCI-H661
In short: as §1

[20] = tested on: EPLC-272H
In short: as §1

[21] = tested on: NCI-H2126
In short: as §1

[22] = tested on: LC-2-ad
In short: as §1

Compound: CCN(CC)CCCCNc1ncc2cc(-c3cc(OC)cc(OC)c3)c(NC(=O)NC(C)(C)C)nc2n1 + CS(=O)(=O)N1CCN(Cc2cc3nc(-c4cccc5[nH]ncc45)nc(N4CCOCC4)c3s2)CC1 [Pictilisib] (partner 1 µM)
- relative viability ([1]; first compound 0.03162 µM): 0.471
- relative viability ([1]; first compound 0.1 µM): 0.486
- relative viability ([1]; first compound 0.3162 µM): 0.465
- relative viability ([1]; first compound 1 µM): 0.348
- relative viability ([2]; first compound 0.03162 µM): 0.189
- relative viability ([2]; first compound 0.1 µM): 0.224
- relative viability ([2]; first compound 0.3162 µM): 0.218
- relative viability ([2]; first compound 1 µM): 0.185
- relative viability ([3]; first compound 0.01 µM): 1.03
- relative viability ([3]; first compound 0.03162 µM): 0.992
- relative viability ([3]; first compound 0.1 µM): 0.886
- relative viability ([3]; first compound 0.3162 µM): 1.06
- relative viability ([3]; first compound 1 µM): 1.02
- relative viability ([4]; first compound 0.01 µM): 0.363
- relative viability ([4]; first compound 0.03162 µM): 0.405
- relative viability ([4]; first compound 0.1 µM): 0.484
- relative viability ([4]; first compound 0.3162 µM): 0.595
- relative viability ([4]; first compound 1 µM): 0.367
- relative viability ([5]; first compound 0.01 µM): 0.874
- relative viability ([5]; first compound 0.03162 µM): 0.889
- relative viability ([5]; first compound 0.1 µM): 0.973
- relative viability ([5]; first compound 0.3162 µM): 0.998
- relative viability ([5]; first compound 1 µM): 0.925
- relative viability ([6]; first compound 0.01 µM): 0.784
- relative viability ([6]; first compound 0.03162 µM): 0.827
- relative viability ([6]; first compound 0.1 µM): 0.918
- relative viability ([6]; first compound 0.3162 µM): 0.961
- relative viability ([6]; first compound 1 µM): 0.984
- relative viability ([7]; first compound 0.01 µM): 0.368
- relative viability ([7]; first compound 0.03162 µM): 0.394
- relative viability ([7]; first compound 0.1 µM): 0.418
- relative viability ([7]; first compound 0.3162 µM): 0.445
- relative viability ([7]; first compound 1 µM): 0.392
- relative viability ([8]; first compound 0.01 µM): 0.741
- relative viability ([8]; first compound 0.03162 µM): 0.663
- relative viability ([8]; first compound 0.1 µM): 0.775
- relative viability ([8]; first compound 0.3162 µM): 0.677
- relative viability ([8]; first compound 1 µM): 0.573
- relative viability ([9]; first compound 0.01 µM): 0.292
- relative viability ([9]; first compound 0.03162 µM): 0.301
- relative viability ([9]; first compound 0.1 µM): 0.264
- relative viability ([9]; first compound 0.3162 µM): 0.225
- relative viability ([9]; first compound 1 µM): 0.146
- relative viability ([10]; first compound 0.01 µM): 0.998
- relative viability ([10]; first compound 0.03162 µM): 0.92
- relative viability ([10]; first compound 0.1 µM): 0.93
- relative viability ([10]; first compound 0.3162 µM): 1.03
- relative viability ([10]; first compound 1 µM): 0.915
- relative viability ([11]; first compound 0.01 µM): 0.695
- relative viability ([11]; first compound 0.03162 µM): 0.639
- relative viability ([11]; first compound 0.1 µM): 0.528
- relative viability ([11]; first compound 0.3162 µM): 0.671
- relative viability ([11]; first compound 1 µM): 0.526
- relative viability ([12]; first compound 0.01 µM): 0.702
- relative viability ([12]; first compound 0.03162 µM): 0.624
- relative viability ([12]; first compound 0.1 µM): 0.658
- relative viability ([12]; first compound 0.3162 µM): 0.807
- relative viability ([12]; first compound 1 µM): 0.509
- relative viability ([13]; first compound 0.01 µM): 0.414
- relative viability ([13]; first compound 0.03162 µM): 0.411
- relative viability ([13]; first compound 0.1 µM): 0.463
- relative viability ([13]; first compound 0.3162 µM): 0.37
- relative viability ([13]; first compound 1 µM): 0.435
- relative viability ([14]; first compound 0.01 µM): 0.551
- relative viability ([14]; first compound 0.03162 µM): 0.559
- relative viability ([14]; first compound 0.1 µM): 0.95
- relative viability ([14]; first compound 0.3162 µM): 0.98
- relative viability ([14]; first compound 1 µM): 0.437
- relative viability ([15]; first compound 0.01 µM): 0.772
- relative viability ([15]; first compound 0.03162 µM): 0.656
- relative viability ([15]; first compound 0.1 µM): 0.611
- relative viability ([15]; first compound 0.3162 µM): 0.89
- relative viability ([15]; first compound 1 µM): 0.655
- relative viability ([16]; first compound 0.01 µM): 0.421
- relative viability ([16]; first compound 0.03162 µM): 0.485
- relative viability ([16]; first compound 0.1 µM): 0.569
- relative viability ([16]; first compound 0.3162 µM): 0.514
- relative viability ([16]; first compound 1 µM): 0.501
- relative viability ([17]; first compound 0.01 µM): 0.361
- relative viability ([17]; first compound 0.03162 µM): 0.412
- relative viability ([17]; first compound 0.1 µM): 0.586
- relative viability ([17]; first compound 0.3162 µM): 0.531
- relative viability ([17]; first compound 1 µM): 0.404
- relative viability ([18]; first compound 0.03162 µM): 0.18
- relative viability ([18]; first compound 0.1 µM): 0.162
- relative viability ([18]; first compound 0.3162 µM): 0.16
- relative viability ([18]; first compound 1 µM): 0.178
- relative viability ([19]; first compound 0.01 µM): 0.403
- relative viability ([19]; first compound 0.03162 µM): 0.313
- relative viability ([19]; first compound 0.1 µM): 0.434
- relative viability ([19]; first compound 0.3162 µM): 0.445
- relative viability ([19]; first compound 1 µM): 0.344
- relative viability ([20]; first compound 0.01 µM): 0.288
- relative viability ([20]; first compound 0.1 µM): 0.33
- relative viability ([20]; first compound 0.3162 µM): 0.298
- relative viability ([20]; first compound 1 µM): 0.184
- relative viability ([21]; first compound 0.01 µM): 0.498
- relative viability ([21]; first compound 0.03162 µM): 0.489
- relative viability ([21]; first compound 0.1 µM): 0.508
- relative viability ([21]; first compound 0.3162 µM): 0.523
- relative viability ([21]; first compound 1 µM): 0.477
- relative viability ([22]; first compound 0.01 µM): 0.481
- relative viability ([22]; first compound 0.03162 µM): 0.449
- relative viability ([22]; first compound 0.1 µM): 0.547
- relative viability ([22]; first compound 0.3162 µM): 0.544
- relative viability ([22]; first compound 1 µM): 0.392
